Test system: strain CY7284
Assay: lacZ assay, Cp5766 in strain CY7284 with integrated LexAop-lacZ
Format: cell-based, yeast
Settings: after 3 hours of treatment, data not shown
Procedure: In addition to transformation of the chimeric construct, the construct may also be integrated into the yeast strain. […] The lacZ assay was performed as described above.

a-factor
increase of β-galactosidase activities: 63 fold

From patent US7022513B2, “Cell based signal generation” (priority 1999, dated 2006)
